{"source": "patent US7449466B2", "about": "“Cyclic aminophenyl sulfamate derivative” (Aska Pharmaceutical Co., Ltd., priority 2003, dated 2008)", "key": {"[1]": {"system": "Salmonella typhimurium TA100 and TA98, and Escherichia coli WP2 uvrA strains", "assay": "Miniscreen method, bacterial reverse mutation, with and without metabolic activation", "format": "cell-based", "conditions": "10-1,000 μg/well; with and without Rat Liver S9mix; positive = revertant colonies twice or more of control", "method": "(4) Miniscreen Method for Examining Presence of Genetic Toxicity:\nReverse mutation-inducing activity of the test comounds on bacteira was examined by Miniscreen method (Environ. Mol. Mutagen., 35, 72-77). Salmonella typhimurium TA100 and TA98, and Escherichia coli WP2 uvrA strains were used for the test. The test was conducted by plate incorporation method as to both cases where metabolic activation was not conducted, or conducted. The dosages were set at six levels as 0, 10, 50, 100, 500 and 1,000 μg/well.\nTo the minimum glucose-agar medium formed on a 6-well plate, 0.02 mL of a test compound solution or a solvent, 0.1 mL of 0.1 M sodium-phosphate buffer (pH=7.4), 0.025 mL of the bacterial suspension and 0.5 mL of soft agar solution were added per well and mixed. Where metabolic activation was conducted, 0.1M sodium-phosphate buffer (pH=7.4) was replaced with 0.1 mL of Rat Liver S9mix. After the soft agar solution solidified, the bacterial strains were cultured at 37° C. for 48 hours. At the end of the culture the number of revertant colonies on the plate was visually counted using a colony counter. Reverse mutation inducing activity of each of the test compounds was judged to be positive where the number of the revertant colonies increased by twice or more than that in the solvent-added control well, and judged negative where the increase was equivalent to the control. […]"}, "[2]": {"system": "Chinese hamster lung fibroblast cells (CHL/IU cells)", "assay": "In vitro micronucleus cell induction test", "format": "cell-based", "method": "(5) In vitro Micronucleus Cell Induction Test for Examining Genetic Toxicity: Presence of micronucleited cell-inducing activity of the test compounds on cultured cells due to chromosome aberration was examined by in vitro micronucleus test (mutagenesis test, 3, 238-245) by Lab-Tek method. The test was conducted by continuous treatment method, using Chinese hamster lung fibroblast cells (CHL/IU cells). The test compound concentration was set at three levels: 50% proliferation inhibitory concentration (IC50), and at the concentration levels attained by diluting it by common ratio one time and two times. […] One (1) mL of 0.075 M aqueous potassium chloride solution was added and a 5 minutes' hypotonic treatment was conducted at room temperature. After termination of the hypotonic treatment, the cells were fixed with a fixative (methanol: acetic acid=99:1). The slide detached from the chamber was stained with an aqueous […] orange solution (40 μg/mL). […] In the case wherein the micronucleited cells increased by a rate twice or more than that in the control well to which the solvent only had been added, the micronucleited cell induction activity was judged positive, and in the case wherein the increase rate was equivalent to that of the control, negative. The test results were as shown in the following Table 4, concurrently with the results of the test (4)."}}, "data": [{"smiles": "N#Cc1cc(OS(N)(=O)=O)ccc1N1CCN(CCCC2CCCCC2)CC1", "note": "[Example 13, 3-cyano-4-[4-(3-cyclohexylpropyl)piperazin-1-yl]-phenyl-O-sulfamate]", "values": [{"measurement": "Miniscreen method (reverse mutation inducing activity)", "setting": "[1]", "result": "negative"}, {"measurement": "In vitro micronucleited cell induction test", "setting": "[2]", "result": "negative"}]}]}
